Test results as given in patent US8771716B2, “Modified release analgesic suspensions” (McNeil-PPC, Inc., priority 2006, dated 2014).

Assays:
[1] = Typical duration of action (period of therapeutic effect) of an immediate release dose, from labeling; type: in vivo
From the text: As used herein, “ATDAIRD” shall mean the average therapeutic duration of action of an effective immediate release dose” of a particular active ingredient. […] The therapeutic duration of action of a particular active ingredient can readily be determined from the dosing instructions in the labeling for immediate release products containing that particular active ingredient.

[2] = decongestant; typically administered every 2 to 4 hours; cited from earlier work

## CC(C)Cc1ccc(C(C)C(=O)O)cc1 (centres unmarked) [ibuprofen, 2-(4-isobutylphenyl)-propionic acid]
[1]
  ATDAIRD (average therapeutic duration of action of an effective immediate release dose): 5 h

## CC(C(=O)O)c1cccc(C(=O)c2ccccc2)c1 (centres unmarked) [ketoprofen]
[1]
  ATDAIRD (average therapeutic duration of action of an effective immediate release dose): 5 h

## COc1ccc2cc([C@H](C)C(=O)O)ccc2c1 [naproxen]
[1]
  ATDAIRD (average therapeutic duration of action of an effective immediate release dose): 10 h

## CNC[C@H](O)c1cccc(O)c1 [phenylephrine, benzynemethanol, 3-hydroxy-α-[(methylamino)methyl]]
[2]
  duration of therapeutic effect: about 2.5 hours

## CN[C@@H](C)[C@@H](O)c1ccccc1 [psuedoephedrine]
[1]
  ATDAIRD (average therapeutic duration of action of an effective immediate release dose): about 3 hours
